From patent publication US8143259B2, “Cold menthol receptor antagonists” (Janssen Pharmaceutica, NV, priority 2008, dated 2012)
Values joined by “and” are separate entries in the source; they are usually repeats but may differ in a detail not shown here. Equal entries are not always repeated.

Molecular target: T1, canine TRPM8 (Canis lupus familiaris, UniProt Q1A7N1)
T1 construct: expressed in transfected cells
Test: In Vitro Canine TRPM8 Functional Assay (Ca2+ fluorescence, icilin activation)
Format: cell-based
Details: for IC50: HEK293 cells stably expressing canine TRPM8, icilin activation, Ca2+ fluorescence; for inhibition at 0.2 µM: HEK293, 0.2 μM compound; for % Inh @ 0.2 μM: 0.2 μM compound
Protocol: The functional activity of compounds of the formula (I) was determined by measuring changes in intracellular calcium concentration using a Ca^2+-sensitive fluorescent dye. The changes in fluorescent signal were monitored by a fluorescence plate reader, either a FLIPR™ (Molecular Devices) or FDSS (Hamamatsu). Increases in intracellular Ca^2+ concentration were readily detected upon activation with icilin.
HEK293 cells stably expressing canine TRPM8 were routinely grown as monolayers in Dulbecco's minimum essential medium supplemented with 10% FBS, 2 mM L-glutamine, 100 units/mL penicillin, 100 ug/mL streptomycin and 400 μg/mL G418. Cells were maintained in 5% CO2 at 37° C. At 24 hrs prior to assay, cells were seeded in black wall, clear-base poly-D-lysine coated 384-well plates (BD Biosciences, NJ, USA) at a density of 5,000 cells per well in culture medium and grown overnight in 5% CO2 at 37° C. On assay day, growth media was removed and cells were loaded with Calcium 3 Dye (Molecular Devices) for 35 min at 37° C., under 5% CO2 and then for 25 min at room temperature and atmosphere. Subsequently, cells were tested for agonist-induced increases in intracellular Ca^2+ levels using FLIPR™ or FDSS. Cells were challenged with compounds of the formula (I) (at varying concentrations) and intracellular Ca^2+ was measured for 5 min prior to the addition of icilin to all wells to achieve a final concentration that produces approximately an 80% maximal response.
Maximal fluorescence intensity (FI) achieved upon addition of icilin was exported from the FLIPR or FDSS software and further analyzed using GraphPad Prism 3.02 (Graph Pad Software Inc., CA, U.S.A.). Basal FI was subtracted prior to normalizing data to percent of maximal response. Curves were generated using the average of quadruplicate wells for each data point, were analyzed using nonlinear regression of either sigmoidal dose response or sigmoidal dose response (variable slope).

[1] = canine TRPM8 HEK293, icilin, 0.2 µM

T1 sequence (Q1A7N1 1-1104): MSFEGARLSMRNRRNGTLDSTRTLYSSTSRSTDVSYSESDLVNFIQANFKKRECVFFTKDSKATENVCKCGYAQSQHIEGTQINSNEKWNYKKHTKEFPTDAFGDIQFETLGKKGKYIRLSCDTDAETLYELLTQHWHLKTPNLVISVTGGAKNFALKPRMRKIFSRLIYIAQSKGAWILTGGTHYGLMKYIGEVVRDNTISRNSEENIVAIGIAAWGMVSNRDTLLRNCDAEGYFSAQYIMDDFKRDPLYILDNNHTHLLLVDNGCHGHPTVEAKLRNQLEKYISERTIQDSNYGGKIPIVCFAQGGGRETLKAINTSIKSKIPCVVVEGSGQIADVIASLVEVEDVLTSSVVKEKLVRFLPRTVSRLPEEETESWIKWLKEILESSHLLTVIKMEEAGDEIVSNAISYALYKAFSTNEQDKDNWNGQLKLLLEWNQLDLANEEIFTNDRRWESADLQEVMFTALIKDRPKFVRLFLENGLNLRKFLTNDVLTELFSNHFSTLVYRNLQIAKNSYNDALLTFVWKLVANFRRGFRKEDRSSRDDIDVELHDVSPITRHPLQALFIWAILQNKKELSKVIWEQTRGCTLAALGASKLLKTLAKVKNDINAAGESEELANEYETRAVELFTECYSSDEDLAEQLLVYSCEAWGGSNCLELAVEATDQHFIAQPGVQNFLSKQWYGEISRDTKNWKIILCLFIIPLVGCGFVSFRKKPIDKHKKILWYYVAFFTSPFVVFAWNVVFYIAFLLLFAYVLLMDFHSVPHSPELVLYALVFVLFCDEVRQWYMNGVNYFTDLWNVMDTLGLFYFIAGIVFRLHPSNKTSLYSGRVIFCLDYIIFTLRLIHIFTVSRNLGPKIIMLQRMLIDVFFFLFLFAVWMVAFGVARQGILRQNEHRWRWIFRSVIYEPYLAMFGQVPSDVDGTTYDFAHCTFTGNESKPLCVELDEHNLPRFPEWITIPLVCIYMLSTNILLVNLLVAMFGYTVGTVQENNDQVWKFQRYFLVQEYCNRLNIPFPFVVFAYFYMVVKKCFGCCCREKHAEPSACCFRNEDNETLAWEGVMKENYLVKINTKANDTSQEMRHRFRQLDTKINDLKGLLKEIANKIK

| Structure (SMILES) | IC50 | inhibition at 0.2 µM (canine TRPM8 HEK293, icilin) | % Inh @ 0.2 μM [1] | also measured |
| --- | --- | --- | --- | --- |
| O=C(C(Nc1cccc(F)c1F)c1ccc(Cl)cc1)N1CCCC1c1ccccc1Cl (single isomer, unassigned) [Cpd 165] | 162 nM |  |  | inhibition at 0.5 µM (HEK293, 0.5 μM compound, canine TRPM8 HEK293, icilin): 99% |
| O=C(C(Nc1cccc(F)c1F)c1ccc(Cl)cc1)N1CCCC1c1ccccc1Cl (single isomer, unassigned) [Cpd 166] | 61 nM |  |  | % Inh @ 0.5 μM (0.5 μM compound, canine TRPM8 HEK293, icilin, 0.5 µM): 96% |
| COc1ccccc1C1CCCN1C(=O)C(Nc1ccccc1F)c1ccc(Br)cc1 (single isomer, unassigned) [Cpd 175] | 69 nM | 85% |  |  |
| COc1ccccc1C1CCCN1C(=O)C(Nc1ccccc1F)c1ccc(Br)cc1 (single isomer, unassigned) [Cpd 176] | 30 nM |  | 94% |  |
| O=C(C(Nc1ccccc1F)c1ccc(C(F)(F)F)cc1)N1CCCC1c1cccc(F)c1 (single isomer, unassigned) [Cpd 185] | 150 nM | 82% |  |  |
| O=C(C(Nc1ccccc1F)c1ccc(C(F)(F)F)cc1)N1CCCC1c1cccc(F)c1 (single isomer, unassigned) [Cpd 187] | 4 nM |  | 98% |  |
| O=C(C(Nc1ccccc1F)c1ccc(C(F)(F)F)cc1)N1CCCC1c1ccccc1Cl (single isomer, unassigned) [Cpd 189] | 9 nM | 98% |  |  |
| O=C(C(Nc1ccccc1F)c1ccc(C(F)(F)F)cc1)N1CCCC1c1ccccc1 (single isomer, unassigned) [Cpd 190] | 85 nM | 89% |  |  |
| O=C(C(Nc1ccccc1F)c1ccc(C(F)(F)F)cc1)N1CCCC1c1ccccc1 (single isomer, unassigned) [Cpd 191] | 5 nM |  | 100% |  |
| O=C(C(Nc1ccccc1F)c1ccc(C(F)(F)F)cc1)N1CCCC1c1ccccc1Cl (single isomer, unassigned) [Cpd 198] | 19 nM and 35 nM |  | 101% |  |
| COC(=O)[C@@H]1CC[C@H](c2ccccc2)N1C(=O)C(Nc1c(F)cccc1F)c1ccc(Br)cc1 (single isomer, unassigned) [Cpd 204] |  | 47% |  |  |
| COC(=O)[C@@H]1CC[C@H](c2ccccc2)N1C(=O)C(Nc1c(F)cccc1F)c1ccc(Br)cc1 (single isomer, unassigned) [Cpd 205] |  |  | 62% |  |
| COC(=O)C1CCC(c2ccccc2)N1C(=O)C(Nc1ccccc1)c1ccc(Cl)cc1 (single isomer, unassigned) [Cpd 206] | 76 nM | 92% |  |  |
| COC(=O)C1CCC(c2ccccc2)N1C(=O)C(Nc1ccccc1F)c1ccc(Br)cc1 (single isomer, unassigned) [Cpd 208] | 9 nM | 101% |  |  |
| COC(=O)C1CCC(c2ccccc2)N1C(=O)C(Nc1ccccc1F)c1ccc(Br)cc1 (single isomer, unassigned) [Cpd 209] | 99 nM |  | 94% |  |
| COC(=O)C1CCC(c2ccccc2)N1C(=O)C(Nc1ccccc1)c1ccc(Cl)cc1 (single isomer, unassigned) [Cpd 212] | 17 nM |  | 99% |  |
| O=C(C(Nc1ccccc1)c1ccc(Cl)cc1)N1[C@H](CO)CC[C@@H]1c1ccccc1 (single isomer, unassigned) [Cpd 235] | 53.7 nM |  |  |  |
| O=C(C(Nc1ccccc1F)c1ccc(Br)cc1)N1[C@@H](CO)CC[C@H]1c1ccccc1 (single isomer, unassigned) [Cpd 242] | 65.5 nM |  |  |  |
| O=C([C@H](Nc1c(F)cccc1F)c1ccc(Br)cc1)N1[C@H](CO)CC[C@@H]1c1ccccc1 (single isomer, unassigned) [Cpd 243] | 133 nM | 88% |  |  |
| O=C(C(Nc1ccccc1F)c1ccc2ncccc2c1)N1CCCC1c1ccccc1F (single isomer, unassigned) [Cpd 247] | 8.4 nM | 93% |  |  |
| O=C(C(Nc1ccccc1F)c1ccc2ncccc2c1)N1CCCC1c1ccccc1F (single isomer, unassigned) [Cpd 251] | 53.7 nM |  | 90% |  |
| O=C(C(c1ccc(C(F)(F)F)cc1)N1CCc2ccccc21)N1CCC[C@H]1c1cccnc1 (single isomer, unassigned) [Cpd 274] | 17 nM | 98% |  |  |
| COc1ccccc1C1CCCN1C(=O)C(Nc1ccccc1F)c1cnc2ccccc2c1 (single isomer, unassigned) [Cpd 277] | 8 nM | 101% |  |  |

| Structure (SMILES) | IC50 | inhibition at 0.2 µM (canine TRPM8 HEK293, icilin) | % Inh @ 0.2 μM [1] | also measured |
| --- | --- | --- | --- | --- |
| COc1ccccc1C1CCCN1C(=O)C(Nc1ccccc1F)c1cnc2ccccc2c1 (single isomer, unassigned) [Cpd 278] | 31 nM and 36 nM |  | 94% and 101% |  |
| O=C(C(Nc1ccccc1F)c1cnc2ccccc2c1)N1CCC[C@H]1c1ccccc1F (single isomer, unassigned) [Cpd 280] | 4 nM and 8 nM | 93% | 101% |  |
| O=C(C(Nc1ccccc1F)c1ccc(-c2ccccn2)cc1)N1CCCC1c1ccccc1F (single isomer, unassigned) [Cpd 296] | 4 nM and 9 nM | 88% | 96% |  |
| O=C(C(Nc1ccccc1F)c1ccc(-c2ccccn2)cc1)N1CCCC1c1ccccc1F (single isomer, unassigned) [Cpd 297] | 65 nM and 69 nM |  | 85% and 87% |  |
| O=C(C(Nc1ccccc1F)c1cnc2ccccc2c1)N1CCCC1c1cccnc1 (single isomer, unassigned) [Cpd 298] |  |  |  | % Inh @ 0.2 μM (canine TRPM8 HEK293, icilin): 22% |
| O=C(C(Nc1ccccc1F)c1ccc(-c2ccccc2)nc1)N1CCC[C@H]1c1ccccc1F (single isomer, unassigned) [Cpd 307] | 4 nM | 102% |  |  |
| O=C(C(Nc1ccccc1F)c1ccc(-c2ccccc2)nc1)N1CCCC1c1ccccc1F (single isomer, unassigned) [Cpd 308] |  |  |  | % Inh @ 0.2 μM (canine TRPM8 HEK293, icilin): 11% |
| O=C(C(Nc1ccccc1F)c1ccc2ncccc2c1)N1CCCC1c1ccccc1Cl (single isomer, unassigned) [Cpd 315] |  |  |  | % Inh @ 0.2 μM (canine TRPM8 HEK293, icilin): 49% |
| O=C(C(Nc1ccccc1F)c1cc2ccccc2s1)N1CCCC1c1ccncc1 (single isomer, unassigned) [Cpd 322] | 8 nM | 89% |  |  |
| O=C(C(Nc1ccccc1F)c1cc2ccccc2s1)N1CCCC1c1ccncc1 (single isomer, unassigned) [Cpd 323] | 24 nM |  | 95% |  |
| O=C(C(Nc1ccccc1F)c1cc2ccccc2s1)N1CCCC1c1ccccn1 (single isomer, unassigned) [Cpd 330] | 6 nM | 101% |  |  |
| O=C(C(Nc1ccccc1F)c1cc2ccccc2s1)N1CCCC1c1ccccn1 (single isomer, unassigned) [Cpd 331] | 13 nM |  |  | % Inh @ 0.2 μM (canine TRPM8 HEK293, icilin): 101% |
| O=C(C(Nc1ccccc1F)c1cncc2ccccc12)N1CCCC1c1ccccc1F (single isomer, unassigned) [Cpd 332] |  |  | 47% |  |
| O=C(C(Nc1ccccc1F)c1cncc2ccccc12)N1CCCC1c1ccccc1F (single isomer, unassigned) [Cpd 333] |  |  | 62% |  |
| O=C(C(Nc1ccccc1F)c1ccc(-c2ccccn2)cc1)N1CCCC1c1ccccc1Cl (single isomer, unassigned) [Cpd 338] | 17 nM | 101% |  |  |
| O=C(C(Nc1ccccc1F)c1ccc(-c2ccccn2)cc1)N1CCCC1c1ccccc1Cl (single isomer, unassigned) [Cpd 339] | 27 nM |  | 97% |  |
| Cc1nc2ccc(C(Nc3ccccc3F)C(=O)N3CCCC3c3ccccc3F)cc2s1 (single isomer, unassigned) [Cpd 340] | 5 nM | 101% |  |  |
| Cc1nc2ccc(C(Nc3ccccc3F)C(=O)N3CCCC3c3ccccc3F)cc2s1 (single isomer, unassigned) [Cpd 341] | 24 nM |  | 100% |  |
| O=C(C(Nc1ccccc1F)c1ccc(C(F)(F)F)cc1)N1CCCC1c1cncc(Br)c1 (single isomer, unassigned) [Cpd 345] | 44 nM | 92% |  |  |
| O=C(C(Nc1ccccc1F)c1ccc(C(F)(F)F)cc1)N1CCCC1c1cncc(Br)c1 (single isomer, unassigned) [Cpd 346] | 38 nM |  | 97% |  |
| CC(C)(C)c1ccc(C(Nc2ccccc2F)C(=O)N2CCCC2c2ccccc2F)cn1 (single isomer, unassigned) [Cpd 356] |  |  |  | % Inh @ 0.2 μM (canine TRPM8 HEK293, icilin): 57% |
| CC(C)(C)c1ccc(C(Nc2ccccc2F)C(=O)N2CCC[C@H]2c2ccccc2F)cn1 (single isomer, unassigned) [Cpd 357] | 3 nM | 100% |  |  |
| O=C(C(Nc1ccccc1F)c1ccc(N2CCOCC2)nc1)N1CCCC1c1ccccc1F (single isomer, unassigned) [Cpd 360] |  |  | 43% |  |
